From patent US20070196360A1, “SUCCINIMIDE AND MALEIMIDE DERIVATIVES AND THEIR USE AS TOPOISOMERASE II CATALYTIC INHIBITORS” (TOPOTARGET A/S, priority 2001, published 2007)
“Also recorded” adds a separate entry of the source. Like-named read-outs stand apart in the source and are kept apart here. Marks after values point to notes of the source that are not given here.

What was measured:
OC—NYH cells = experiment: Alkaline elution (single strand DNA breaks, SSBs)
Experimental: This assay thus provides information concerning a given compounds ability to cause (or antagonize in the case of topoisomerase II catalytic inhibitors in the combination with classical topoisomerase II poisons) DNA damage in intact cells.
The assays for SSBs and for DPCs (DNA-protein cross-links) are performed according to Kohn et. al (23).
For measurement of single-strand breaks (SSBs), L1210 cells used as internal standard are exposed to 100 μM H2O2 for 60 min on ice, corresponding to an irradiation dose of 300 rad as described by Szmigiero and Studzian (25). OC—NYH cells are incubated in medium supplemented with the indicated drug at 37° C. for the specified periods, washed in 10 mL ice-cold PBS and then lysed on the filter (Nucleopore, 2.0 μM pore size) with 5 mL of SDS-EDTA lysis solution (2% SDS, 0.1 glycine and 0.025 M Na2EDTA) at pH 10, followed by addition of 1.5 mL SDS-EDTA lysis solution supplemented with 0.5 mg/mL proteinase K. Mixing of standard and experimental cells is done immediately prior to lysis. […] Fractions are collected at 20-min intervals for 2 h. Filters are treated with 400 μL 1 N HCl for 1 h at 60° C., cooled and 0.4 M NaOH is added prior to scintillation counting.

[1] = biological target: T1, purified topoisomerase II α (Homo sapiens, UniProt P11388); experiment: Decatenation assay (kDNA decatenation); type: biochemical
Source text: The decatenation assay is a direct measurement of a given compounds inhibitory action on purified topoisomerase II enzyme. The general role of the topoisomerase II enzyme in living cells is to cause decatenation of catenated DNA during cell division. If a compound is able to inhibit this decatenation, the compound is an inhibitor of the topoisomerase II enzyme. While this assay is capable of determining whether a given compound is active against topoisomerase II, information concerning the exact mode of action is not provided.
Topoisomerase II catalytic activity is measured by kDNA decatenation. ^3H labelled kDNA is isolated from Crithidia fasciculata (ATCC, Manassas, Va.) as described in (24). Briefly, relevant concentrations of the test compound in buffer (50 mM Tris-Cl, pH8, 120 mM KCl, 10 mM MgCl2, 1.0 mM ATP, […]) and purified topoisomerase II α is incubated with […] for 15 min at 37° C. in a final volume of 20 μl. After addition of stop buffer/loading dye mix (5% Sarkosyl, 0.0025% bromophenol blue, 25% glycerol), samples are loaded on 1% agarose/0.5% ethidium bromide gels and run in TBE buffer containing […] ethidium bromide at 100V for approximately 50 min and photographed under UV light. In addition, loading wells are cut out and scintillation counted to obtain numerical values. These values are then plotted against drug concentration to obtain dose-response curves enabling the determination of IC50 values for individual compounds.

[2] = tested on: cultured human cancer cells; experiment: Clonogenic assay (cytotoxicity; antagonism of topoisomerase II poison cytotoxicity); details: for inhibition of the toxicity of the classical poisons (protection): poisons VP16, DAU, IDA; for IC50: Homo sapiens, read-out: IC50 (clonogenic assay)
Source text: The information derived from the clonogenic assay is cytotoxicity.
A 3-week clonogenic assay is used. […] The number of cells is adjusted to obtain 2000 to 3000 colonies in the control dishes. Finally, the colonies are counted.

[3] = animal studies and patients; cited from earlier work
[4] = biological target: T1, purified topoisomerase II α; experiment: Plasmid cleavage assay; type: biochemical
Experimental: The plasmid cleavage assay is capable of assessing wether a given compound stimulates topoisomerase II mediated DNA cleavage in the test tube. A modification of the protocol described in (Burden et al., 2001) is used. 350 ng purified human topoisomerase II α, 400 ng pUC18 DNA, and increasing concentrations of drugs were incubated for 6 min at 37° C. in 20 μl topoisomerase II cleavage buffer (10 mM TRIS-HCL pH 7.9, 50 mM NaCl, 50 mM KCl, 5 mM CaCl2, 1 mM EDTA, 15 μg/ml BSA and 1 mM Na2ATP, all from Sigma Chemical Co., St. Louis, Mo., USA). Next, the cleavable complex was trapped by adding 2 μl 10% SDS. After vigorous vortexing 1.5 μl 0.25 M EDTA and 2 μl proteinase K (0.8 μg/ml) in proteinase buffer (50 mM Tris-HCL pH=7.9, 1 mM CaCl2) was added and the samples vortexed. After a 30 min incubation at 45° C., 5 μl loading buffer (5% Sarkosyl, 0.0025% bromophenol blue, 25% glycerol) was added and the samples were exposed to 70° C. for 5 min. Next, samples were run through a 0.8 % agarose gel in 1× TAE buffer for three hours at 5 V/cm to separate different topological forms of plasmid DNA. Finally the gels were strained in distilled water containing 10 μg/ml ethidium bromide for 15 min followed by de-strained in distilled water for one hour before they were photographed in UV light. […] Further, compounds not capable of stimulating topoisomerase mediated DNA cleavage while being active in the decatenation assay are also classified as topoisomerase II catalytic inhibitors.

[5] = tested on: extractable topoisomerase II in OC—NYH cells; experiment: Band depletion assay
Experimental: OC—NYH cells are incubated for 1 h at 37 C in RPMI 1640 with 10% of fetal calf serum with the desired compounds for test. Thereafter, whole cell lysates were obtained at 4 C. Exponentially growing cells were harvested and washed in PBS. Cells are resuspended in 0.2 mL ELB-buffer (NaCl 0.25 M, NP40 0.1%, HEPES 50 mM, EDTA 5 mM) containing aprotinin 1 μg/ml, leupeptin 1 μg/ml, DTT 1M and PMSF 0.3 mM and lysed for 30 min. Pellets are spun down at 20000×g for 20 min. The protein concentration of the supernatants is measured, and the supernatants are diluted with an equal volume of glycerol.
After heating the nuclear extracts for 5 min at 95 C, the sample is immediately loaded on a 7% SDS-PAGE gel containing 5% glycerol. Thereafter, all steps are performed at RT. The separated proteins are transferred to Trans-Blot® Nitrocellulose, in a Mini Trans-blot® Electrophoretic Transfer Cell with 25 mM Tris, 192 mM glycine and 205 v/v methanol, pH 8.3 at 210 mA for 1 h. Membranes are blocked in 10% milk in TBS-T for 1 h and probed with either topoisomerase II as (1:1000) 1 h. Horseradish-peroxidase-conjugated donkey-antirabbit antibodies are used as secondary antibodies. The blots are developed using ECL™reagent 1 min and thereafter exposed on films for 5 min. Quantification of can be made by densitometric scanning.

[6] = tested on: NCI-H69, NCI-H69/DAU and NCI-H69/VP; experiment: Clonogenic assay on NCI-H69 and multi drug resistant derivatives; type: cell-based, human; details: NCI-H69 versus NCI-H69/DAU and NCI-H69/VP
Source text: Further corroboration of catalytic inhibitory activity of compounds of formula M was found in clonogenic assays on human lung cancer cell lines H69/dau and H69/VP because no resistance to compounds of formula M was found in these cell lines which are selected to be daunorubicin and, etopside (VP-16) resistant respectively.
A 3-week clonogenic assay is used. […] Finally, the colonies are counted.

[7] = read-out: IC50, topoisomerase II decatenation
[8] = compound 75 uM, daunorubicin 0.3 uM
[9] = etoposide 50 uM, compound between 5 and 625 uM
[10] = FIG. 7, read-out: IC50, decatenation assay

T1 sequence (P11388 whole entry): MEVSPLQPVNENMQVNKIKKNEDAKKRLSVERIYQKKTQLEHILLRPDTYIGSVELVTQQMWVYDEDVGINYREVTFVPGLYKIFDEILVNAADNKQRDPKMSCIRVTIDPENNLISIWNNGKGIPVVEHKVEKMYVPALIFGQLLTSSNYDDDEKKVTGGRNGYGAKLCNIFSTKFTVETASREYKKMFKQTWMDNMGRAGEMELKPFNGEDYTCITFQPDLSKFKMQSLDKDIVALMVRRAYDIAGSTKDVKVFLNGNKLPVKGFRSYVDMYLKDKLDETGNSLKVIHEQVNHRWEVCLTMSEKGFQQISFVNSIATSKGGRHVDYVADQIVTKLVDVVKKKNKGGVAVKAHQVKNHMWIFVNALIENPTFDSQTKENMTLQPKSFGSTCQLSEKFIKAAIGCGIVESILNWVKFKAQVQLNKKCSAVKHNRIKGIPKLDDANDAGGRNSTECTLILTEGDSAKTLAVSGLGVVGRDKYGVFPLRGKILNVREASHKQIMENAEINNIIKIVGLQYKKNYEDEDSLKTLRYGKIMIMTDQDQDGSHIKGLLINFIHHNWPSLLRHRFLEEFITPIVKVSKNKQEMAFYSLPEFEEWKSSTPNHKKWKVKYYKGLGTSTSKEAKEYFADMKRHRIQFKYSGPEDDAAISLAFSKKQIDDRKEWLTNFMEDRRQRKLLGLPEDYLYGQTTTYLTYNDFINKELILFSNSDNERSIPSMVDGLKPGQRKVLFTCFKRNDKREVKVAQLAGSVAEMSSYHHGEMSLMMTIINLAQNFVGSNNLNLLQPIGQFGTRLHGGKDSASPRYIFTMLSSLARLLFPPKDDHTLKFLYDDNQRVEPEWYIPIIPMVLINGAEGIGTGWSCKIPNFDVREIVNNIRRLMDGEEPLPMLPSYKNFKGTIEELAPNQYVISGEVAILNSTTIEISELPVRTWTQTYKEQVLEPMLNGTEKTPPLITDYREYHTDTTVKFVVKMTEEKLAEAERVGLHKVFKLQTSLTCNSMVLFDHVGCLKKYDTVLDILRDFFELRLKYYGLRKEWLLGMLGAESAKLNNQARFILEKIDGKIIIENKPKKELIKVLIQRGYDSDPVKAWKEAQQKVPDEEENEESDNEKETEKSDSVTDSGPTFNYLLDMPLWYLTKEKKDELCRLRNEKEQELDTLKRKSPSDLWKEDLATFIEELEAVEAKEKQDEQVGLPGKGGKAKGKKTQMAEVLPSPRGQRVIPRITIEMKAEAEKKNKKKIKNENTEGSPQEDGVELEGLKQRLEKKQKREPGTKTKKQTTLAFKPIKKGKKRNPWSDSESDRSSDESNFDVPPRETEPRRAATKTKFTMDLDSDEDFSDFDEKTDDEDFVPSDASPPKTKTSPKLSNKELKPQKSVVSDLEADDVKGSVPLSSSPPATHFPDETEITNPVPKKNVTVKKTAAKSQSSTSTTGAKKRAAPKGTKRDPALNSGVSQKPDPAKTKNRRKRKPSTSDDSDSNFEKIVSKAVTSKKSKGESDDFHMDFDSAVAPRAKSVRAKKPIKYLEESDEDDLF

## O=C1CC(NCCNC2CC(=O)NC2=O)C(=O)N1 (stereo not shown) [I-21, N,N′-Di-(pyrrolidine-2′,5′-dione-3′-yl)-ethylene-1,2-diamine]
OC—NYH cells; compound from 50-500 uM
  effect on the VP-16 induced SSBs: No effect on the VP-16
[1]
  concentration from which topoisomerase II decatenation is inhibited: above 500 uM. IC50
[1]; [7]
  IC50: ~800 µM
[2]; compound 500 uM, VP-16 20 uM
  protection class: + (The + indicates, that the protection. i.e. log(number of surviving cells) is about 1.)
  survival: ≤ 1%
[2]; compound alone
  LD50: LD50 = 750 uM.
[2]; lower pH
  toxic to cells: pH 7.4. Tax at lower
[2]; pH 7.4
  toxic to cells: Not toxic to cells
[2]
  inhibition of the toxicity of the classical poisons (protection): Only very weak

## CC(CNC1CC(=O)NC1=O)NC1CC(=O)NC1=O (stereo not shown) [I-112]
OC—NYH cells; compound at 250 uM, FIG. 4: etoposide 3 μM
  inhibition of VP-16 induced SSBs: reversal; also recorded: Effective inhibition of
[1]
  inhibition of topoisomerase II catalytic activity (decatenation), in words: effectively. IC50 about
[1]; [7]
  IC50: ~100 µM
[2]
  protection against VP-16 toxicity: VPneg.
  inhibition of the toxicity of the classical poisons (protection): able to protect; also recorded: Inhibits the toxicity of
[2]; [8]
  protection class: DAU(0.3[…]uM)+ up to (The + indicates, that the protection. i.e. log(number of surviving cells) is about 1.)
  survival: ≤ 20% survival.
[2]; compound alone
  LD10: LD10 = 75 uM.
[2]; compound given alone
  toxic to cells: no cytotoxicity; also recorded: Not toxic to cells

## C[C@@H](CN1CC(=O)NC(=O)C1)N1CC(=O)NC(=O)C1 [ICRF-187, (+)-1,2-bis(3,5-dioxopiperazinyl-1-yl)propane, reference compound]
[3]
  protection against anthracycline extravasation injuries: protected
OC—NYH cells; compound 500 μM, etoposide 3 μM (FIG. 4)
  reversal of etoposide (VP-16) induced SSBs: reversal
OC—NYH cells; compound at 200 uM
  inhibition of VP-16 induced SSBs: Effective inhibition of
[4]
  antagonism of etoposide induced DNA cleavage: cleavage. No
[1]
  inhibition of topoisomerase II catalytic activity (decatenation), in words: effectively. IC50 about
[1]; [7]
  IC50: ~50 µM
[2]; compound 500 uM, idarubicin 0.01 μM
  protection class: (IDA(0.01)+ up to (The + indicates, that the protection. i.e. log(number of surviving cells) is about 1.)
[2]; compound 500 uM, idarubicin 0.03
  survival: ≤ 40% survival)*
[2]; compound alone
  LD50: 750 µM
[2]; compound given alone
  toxic to cells: no toxicity and Not
[2]
  inhibition of the toxicity of the classical poisons (protection): Effective inhibitor of

## CCN1C(=O)C=CC1=O [NEM, N-ethyl-maleimide]
OC—NYH cells; concentrations up to 250 uM
  DNA damage by the compound itself: Only limited DNA
[4]
  antagonism of etoposide induced DNA cleavage: capable of antagonising
  stimulation of topoisomerase II mediated DNA cleavage: does not stimulate
[4]; [9]
  antagonism of etoposide induced DNA cleavage: Strong
[1]
  inhibition of topoisomerase II catalytic activity (decatenation), in words: Very potent,
[1]; [10]
  IC50: ~4 µM
[1]; [7]
  IC50: 5 µM
[2]
  IC50: 4 µM

## CN1C(=O)C=CC1=O [NMM, N-methyl-maleimide]
[1]
  inhibition of topoisomerase II catalytic activity (decatenation), in words: Very potent,
[1]; [10]
  IC50: ~4 µM
[1]; [7]
  IC50: 5 µM
[2]
  antagonism of etoposide and daunorubicin mediated cytotoxicity: effectively blocked
  IC50: 4 µM

## COc1cc([C@@H]2c3cc4c(cc3[C@@H](O[C@@H]3O[C@@H]5CO[C@@H](C)O[C@H]5[C@H](O)[C@H]3O)[C@H]3COC(=O)[C@H]23)OCO4)cc(OC)c1O [etoposide, reference compound]
[5]; cells treated with 100 μM
  extractable amount of topoisomerase II: clearly reduced

## O=C1C=CC(=O)N1 [maleimide]
[6]
  cross resistance of MDR cell lines: No cross resistance
OC—NYH cells
  antagonism of DNA damage induced by etoposide, daunorubicin or doxorubicin: antagonize
OC—NYH cells; compound at 50 uM
  inhibition of VP-16 induced SSBs: antagonise; also recorded: Effective
[4]
  antagonism of etoposide induced DNA cleavage: capable of antagonising
  stimulation of topoisomerase II mediated DNA cleavage: does not stimulate
[4]; [9]
  antagonism of etoposide induced DNA cleavage: Strong
[1]
  inhibition of topoisomerase II catalytic activity (decatenation), in words: Very potent,
[1]; [10]
  IC50: ~2 µM
[1]; [7]
  IC50: 2 µM
[5]; etoposide 100 μM, compound 50 μM (FIG. 10)
  band depleting effect of etoposide: completely lost
[2]
  antagonism of etoposide and daunorubicin mediated cytotoxicity: effectively blocked
  inhibition of the toxicity of the classical poisons (protection): Effective
[2]; compound 0.5 uM, DAU 0.5 uM
  survival: up to 10%
[2]; compound 0.5 uM, VP-16 20 uM
  protection class: (VP-16 (20 uM)+ (The + indicates, that the protection. i.e. log(number of surviving cells) is about 1.)
  survival: up to 30%
[2]; compound alone
  LD50: LD50 4 uM.
[2]; compound given alone
  toxic to cells: toxic to cells in itself; also recorded: Very toxic to
[2]; etoposide 20 μM and daunorubicin 0.3 μM (FIG. 3)
  inhibition of poison induced cell toxicity: strong
